Assay results from patent US20240366565A1, “Use of Verteporfin to Modulate Wound Healing After an Ocular Surgical Procedure or Ocular Injury” (The Board of Trustees of the Leland Stanford Junior …, priority 2021, published 2024).

Assays:
[1] = tested on: α-smooth muscle actin (α-SMA, ACTA-2) expression in hMSCs; experiment: qPCR of α-smooth muscle actin expression in TGFB-1 treated hMSCs; type: cell-based, human
Method: FIG. 1. Verteporfin reduces expression of α-smooth muscle actin in hMSCs. Human mesenchymal stem cells (hMSCs) were plated in culture. The next day, the following treatments were added in duplicate: 1 μg/mL Verteporfin, 10 μg/mL Verteporfin, 10 ng/ml transforming growth factor beta-1 (TGFB-1), 1 μg/mL Verteporfin+10 ng/mL TGFB-1, 10 μg/mL Verteporfin+10 ng/ml TGFB-1, Dimethyl sulfoxide (DMSO), and cells without treatment. After 24 hours, the medium was removed, the wells were washed with PBS and then the RNA of the cells were extracted using Trizol and a Quiagen kit. Quantitative polymerase chain reaction (qPCR) was performed. TGFB-1 activation leads to the differentiation of mesenchymal stem cells into myofibroblasts, inducing expression of α-smooth muscle actin (α-SMA) and the extracellular matrix proteins such as collagen which may lead to scarring.
Human mesenchymal stem cells (hMSCs) were plated in culture. The next day, the following treatments were added in duplicate: 1 μg/mL Verteporfin, 10 μg/mL Verteporfin, 10 ng/ml transforming growth factor beta-1 (TGFB-1), 1 μg/mL Verteporfin+10 ng/ml TGFB-1, 10 μg/mL Verteporfin+10 ng/ml TGFB-1, Dimethyl sulfoxide (DMSO), and cells without treatment. […] Quantitative polymerase chain reaction (qPCR) was performed.

[2] = tested on: alpha smooth muscle actin (ASMA) in hMSCs; experiment: Immunostaining of alpha smooth muscle actin in hMSCs; type: cell-based, human; conditions: 10 ng/ml TGFB-1 with or without verteporfin, 24 hours
Method: FIG. 2. Results of immunostaining alpha smooth muscle actin in hMSCs. The hMSCs, were treated with 10 ng/ml TGFB-1 with or without verteporfin and DMSO for 24 hours. The next day, the cells were fixed and stained for alpha smooth muscle actin (ASMA).
The hMSCs, treated with 10 ng/ml TGFB-1 with or without verteporfin and DMSO for 24 hours, were fixed and stained for alpha smooth muscle actin (ASMA) the next day.

[3] = tested on: ki67 (Mki67) expression in hMSCs; experiment: qPCR of ki67 expression in hMSCs; type: cell-based, human; conditions: Verteporfin 1 μg/mL and 10 μg/mL, 24 hours
Method: FIG. 3. […] The hMSCs were cultured on plates. The next day, the treatments were added in duplicate: Verteporfin 1 μg/mL, Verteporfin 10 μg/mL, DMSO, and cells without treatment. After 24 hours, the medium was removed, the wells were washed with PBS and then the RNA of the cells were extracted using Trizol and Quiagen kit. qPCR was performed.
The hMSCs were cultured on plates. The next day, the treatments were added in duplicate: Verteporfin 1 μg/mL, Verteporfin 10 μg/mL, DMSO, and cells without treatment. After 24 hours, the medium was removed, the wells were washed with PBS and then the RNA of the cells were extracted using Trizol and Quiagen kit. qPCR was performed.

hMSCs = experiment: Live/dead cytotoxicity test in hMSCs; type: cell-based, human; conditions: 1 μg/mL and 10 μg/mL, 24 hours
Method: FIG. 4. Verteporfin is not cytotoxic to hMSCs. The hMSCs were treated with verteporfin at concentrations of 1 μg/mL and 10 μg/mL for 24 hours. Cells were treated with 10% DMSO for 40 minutes. The next day, the live/dead solution was added to the cells.
The hMSCs were treated with verteporfin at concentrations of 1 μg/mL and 10 μg/mL for 24 hours. Cells were treated with 10% DMSO for 40 minutes. The next day, the live/dead solution was added to the cells.

[4] = tested on: bleb survival after glaucoma filtration surgery; experiment: Rabbit model of glaucoma filtration surgery; type: in vivo, New Zealand White rabbits; conditions: subconjunctival injection into the bleb after surgery, various concentrations, versus BSS control eye
Method: FIGS. 5A-5B. Efficacy of verteporfin in reducing scarring and increasing bleb survival. The efficacy of verteporfin in reducing scarring and increasing bleb survival was evaluated in a rabbit model of glaucoma filtration surgery. Glaucoma filtration surgery was performed in both eyes of New Zealand White rabbits. In one eye, various concentrations of verteporfin or Mitomycin C was injected subconjunctivally into the bleb after surgery. In the contralateral eye, BSS was injected after surgery as a control. Bleb appearance and survival were evaluated postoperatively at least twice a week. Bleb survival was the primary endpoint. […] There were no post-surgical complications in all groups, including corneal edema, bleb leak, anterior chamber inflammation, iris involvement, cataract or infection (FIG. 5B).
The efficacy of verteporfin in reducing scarring and increasing bleb survival was evaluated in a rabbit model of glaucoma filtration surgery. Glaucoma filtration surgery was performed in both eyes of New Zealand White rabbits. In one eye, various concentrations of verteporfin or Mitomycin C was injected subconjunctivally into the bleb after surgery. In the contralateral eye, BSS was injected after surgery as a control. Bleb appearance and survival were evaluated postoperatively at least twice a week. Bleb survival was the primary endpoint.

[5] = tested on: corneal scarring after anterior lamellar keratectomy; experiment: Rat model of corneal injury (anterior lamellar keratectomy); type: in vivo; conditions: ALK cut depth around 50%, 10 μg/mL in Provisc gel subconjunctivally on Day 0, read at day 3, versus untreated eyes
Method: FIG. 6. Efficacy of verteporfin in reducing corneal scarring. Anterior lamellar keratectomy (ALK) with a cut depth of around 50% was performed in a rat model of corneal injury. 10 μg/mL verteporfin (in Provisc gel) was subconjunctivally injected after ALK on Day 0.
Anterior lamellar keratectomy (ALK) with a cut depth of around 50% was performed in a rat model of corneal injury. 10 μg/mL verteporfin (in Provisc gel) was subconjunctivally injected after ALK on Day 0.

skin wounds = conditions: cited from earlier work

## Verteporfin
[1]; 10 ng/ml TGFB-1 + 1 or 10 μg/mL Verteporfin, 24 hours
  expression of alpha-SMA (qPCR): statistically reduced the expression of alpha-SMA in a dose dependent manner
[2]
  expression of ASMA (immunostaining): reduces the expression of ASMA
[3]
  expression of ki67 (Mki67), marker of cell proliferation (qPCR): did not increase the expression of ki67
hMSCs
  cytotoxicity (live/dead): not cytotoxic
[4]
  bleb survival: trend towards increased survival
[5]
  corneal scarring: reduced corneal scarring
Skin wounds; mice, injection into skin wounds
  scar formation in skin wounds: prevented scar formation
Skin wounds; previous animal studies
  side effects on dosing in the skin: minimal side effects

## transforming growth factor beta-1 [TGFB-1]
[1]; 10 ng/ml TGFB-1 alone, after 24 hours
  expression of alpha-SMA (ACTA-2) (qPCR): statistically increased the expression of alpha-SMA
